Measurements as given in publication PMC11566078, “Bactericidal activities and biochemical features of 16 antimicrobial peptides against bovine-mastitis causative pathogens” (Veterinary Research, 2024).
Read-outs that look alike come from different tables or passages of the source. Where no end group is shown, it is not given here.

Key:
[1] = tested on: Bacillus cereus ATCC 10876; test: microbe, parasite or virus in culture; assay type: cell-based; conditions: ATCC 10876, 6 h
Description: (§1) The standard bacterial strains used for antimicrobial activity assays include Staphylococcus aureus ATCC (American Type Culture Collection, Manassas, VA, USA) 6538, Bacillus cereus ATCC 10876, Enterococcus faecalis ATCC 29212, Streptococcus […] 27956, Streptococcus dysgalactiae ATCC 27957, Streptococcus equi subsp. zooepidemicus ATCC 43079, Escherichia coli ATCC 25922, and Pseudomonas aeruginosa ATCC 27853. Most bacterial strains were cultured in LB medium except for E. faecalis and streptococci, which were cultivated in brain heart infusion (BHI) broth (BD Bioscience). […] Experiments were conducted in triplicate.

[2] = tested on: Enterococcus faecalis ATCC 29212; test: microbe, parasite or virus in culture; assay type: cell-based; conditions: ATCC 29212, 6 h
Description: as §1

[3] = tested on: Pseudomonas aeruginosa ATCC 27853; test: microbe, parasite or virus in culture; assay type: cell-based; conditions: ATCC 27853, 6 h
Description: as §1

[4] = tested on: Staphylococcus aureus ATCC 6538; test: microbe, parasite or virus in culture; assay type: cell-based; conditions: ATCC 6538, 6 h
Description: as §1

[5] = tested on: Streptococcus agalactiae ATCC 27956; test: microbe, parasite or virus in culture; assay type: cell-based; conditions: ATCC 27956, 6 h
Description: as §1

[6] = tested on: Streptococcus dysgalactiae ATCC 27957; test: microbe, parasite or virus in culture; assay type: cell-based; conditions: ATCC 27957, 6 h
Description: as §1

[7] = tested on: Streptococcus equi subsp. zooepidemicus ATCC 43079; test: microbe, parasite or virus in culture; assay type: cell-based; conditions: ATCC 43079, 6 h
Description: as §1

Corynebacterium simulans = test: microbe, parasite or virus in culture; assay type: cell-based; conditions: 6 h
Description: (§2) All plates were cultivated aerobically.
(§3) Experiments were conducted in triplicate.

[8] = tested on: Glutamicibacter halophytocola; test: microbe, parasite or virus in culture; assay type: cell-based; conditions: 6 h
Description: as §2, §3

[9] = tested on: Staphylococcus chromogenes; test: microbe, parasite or virus in culture; assay type: cell-based; conditions: 6 h
Description: as §2, §3

[10] = tested on: Staphylococcus epidermidis; test: microbe, parasite or virus in culture; assay type: cell-based; conditions: 6 h
Description: as §2, §3

Staphylococcus xylosus = test: microbe, parasite or virus in culture; assay type: cell-based; conditions: 6 h
Description: as §2, §3

Streptococcus uberis = test: microbe, parasite or virus in culture; assay type: cell-based; conditions: 6 h
Description: as §2, §3

E. coli (ATCC 25922) [11] = assay type: cell-based, Escherichia coli
Description: as §3
(§4) The MICs against E. coli (ATCC 25922) for cc-CATH3, ML-CATH, and PD-CATH in 150 mM NaCl and different pH (pH 5, 6, and 7) that were adjusted using acetic acid (Sigma Aldrich) were determined as described above. For serum stability assay, each AMP at four different concentrations was dissolved in 50% (v/v) FBS (Hyclone™) and incubated at 37 °C for 0, 60, and 120 min, respectively. As described in a previous study, ΔHg-CATH was used as a control for serum sensitivity. The antimicrobial activity of cc-CATH3, ML-CATH, and PD-CATH against E. coli was assessed for each condition as above. All experiments were conducted in triplicate.

E. coli (ATCC 25922) [12] = assay type: in vitro ADME, Escherichia coli
Description: as §4
Figure 2 Changes in the antibacterial activity of cc-CATH3, ML-CATH, and PD-CATH after incubation with naïve serum. cc-CATH3, ML-CATH, and PD-CATH peptides were incubated in 50% (v/v) FBS each for 0, 60, and 120 min before applying to antimicrobial activity assay against E. coli (ATCC 25922). The antimicrobial activity was determined by measuring bacterial growth at OD 450 nm. The X and Y axes indicate peptide concentration and absorbance at 450 nm, respectively. Samples containing 50% FBS in the absence of the peptides indicate a control for bacterial growth without AMP treatments. The antimicrobial activity of cc-CATH3 (A), ML-CATH (B), and PD-CATH (C) after the treatment of FBS-incubated AMPs was shown.

bovine erythrocytes = test: Haemolytic activity; assay type: cell-based; conditions: OD 410 nm, repeated three times
Description: The experimental procedures were conducted in accordance with the guidelines approved by the Institutional Animal Care and Use Committee (IACUC) of Konkuk University, Seoul, Korea, and bovine blood was collected from a cow at a local farm using a BD Vacutainer® Sodium Heparin (BD Bioscience) to analyse haemolytic activity. Plasma was removed from the whole blood by centrifugation. Erythrocytes were washed thrice with phosphate-buffered saline (PBS, pH 7.4) and resuspended in PBS at a concentration of 2% (v/v). Subsequently, 100 µL of the erythrocyte suspension was added to each well of a 96-well microtiter plate. The plate contained an equal volume of the peptides in PBS with different concentrations of 10, 20, 40, 80, and 160 μg/mL. Triton-X 100 (1%) and PBS were used as positive and negative controls, respectively. Plates were incubated at 37 °C for 1 h. The release of haemoglobin into the supernatant was monitored by measuring the change in OD at 410 nm using a microplate reader (xMark™ spectrophotometer; Bio-Rad). Results from three independent experiments were pooled. Hemolysis was calculated using the formula: HemolyticPercentage(%)=100×(ODpeptide-ODnegative)/(ODpositive-ODnegative)
All experiments were carried out in triplicate.

[13] = tested on: eight standard bacterial strains; assay type: cell-based; conditions: all eight standard strains; range stated for the three peptides
Description: as §1

[14] = tested on: all bacterial strains in the panel and field isolates from milk; assay type: cell-based; conditions: against all bacterial strains in the panel and field isolates from milk
Description: The standard bacterial strains used for antimicrobial activity assays include Staphylococcus aureus ATCC (American Type Culture Collection, Manassas, VA, USA) 6538, Bacillus cereus ATCC 10876, Enterococcus faecalis ATCC 29212, Streptococcus agalactiae ATCC 27956, Streptococcus dysgalactiae ATCC 27957, Streptococcus equi subsp. zooepidemicus ATCC 43079, Escherichia coli ATCC 25922, and Pseudomonas aeruginosa ATCC 27853. Most bacterial strains were cultured in LB medium except for E. faecalis and streptococci, which were cultivated in brain heart infusion (BHI) broth (BD Bioscience).
as §2, §3

[15] = tested on: field isolates from milk with high SCCs; conditions: all field isolates except A. hydrophila; range stated for the three peptides
Description: The minimum inhibitory concentration (MIC) was determined by following the manufacturer’s protocol and Clinical and Laboratory Standards Institute (CLSI) guidelines (2018) using a colourimetric method specified by the Microbial Viability Assay Kit-WST (Dojindo, Kumamoto, Japan). Four colonies of each bacterium were inoculated into 5 mL of LB medium and incubated at 37 °C for 4–6 h. The cells were then washed twice with sterile saline (0.9% NaCl) and seeded into a single well of a 96-well plate at a density of 1.5 × 10^5 cells/well, adjusting by McFarland standard 0.5. Subsequently, 180 µL/well of fresh MH broth (BD Bioscience) was added to the plate. Ampicillin, chloramphenicol, and gentamicin sulfate were used as controls for antimicrobial activity.
Different concentrations of each peptide and reference antibiotics (up to 40 µg/mL) were serially diluted in 10 µL of MH broth and added to each well. The plate was incubated at 37 °C for 6 h, using BHI broth to culture slow-growing fastidious strains, including E. faecalis, A. hydrophila, C. simulans, G. halophytocola, and streptococci. Cation-adjusted Mueller Hinton II broth (CAMHB) was employed to cultivate P. aeruginosa. Afterwards, 10 µL of the colouring reagent was added, and cells were incubated at 37 °C for 2 h. UV absorbance was measured for each well at 450 nm using a microplate spectrophotometer (xMark spectrophotometer; Bio-Rad, Hercules, CA, USA). The MIC values were determined when the absorbance difference between treatments and blanks (media and colouring reagent only) decreased to < 0.05. Experiments were conducted in triplicate.

PK15 cells [16] = test: Cytotoxicity, WST-1 cell viability; conditions: 24 h, 37 °C, repeated three times
Description: (§5) Human keratinocytes (HaCaT) and pig kidney fibroblast cells (PK15, ATCC CCL-33) were cultured in Dulbecco’s modified Eagle’s medium (DMEM; Hyclone™, Logan, UT, USA) and supplemented with 10% foetal bovine serum (FBS; Hyclone™, Logan, UT, USA), 1% penicillin–streptomycin (Hyclone™) at 37 °C, and 5% CO2 up to 80% confluence. Cell substratum adhesion was disrupted using Accutase (Innovative Cell Technologies, San Diego, CA, USA). A total of 4 × 10^4 cells were incubated for 24 h at 37 °C and 5% CO2 in each well of a 96-well plate containing 64 and 160 µg/mL of each peptide.
(§6) A positive control for complete cell lysis was established using Triton-X100 (1%), and untreated cells were used as the negative control. After incubation, the medium was removed from the wells and replaced with 10 µL of colouring solution (Cell Proliferation Reagent WST-1™) and 100 µL of DMEM (Hyclone™), per the manufacturer’s protocol. Each well absorbance was measured at 440 nm (peptide-treated and control) and 650 nm (background). These measurements were recorded as the optical density (OD) using a microplate reader (xMark™ spectrophotometer; Bio-Rad, CA, USA). Cell viability was calculated using the following equation: CellViability(%)=100×(ODpeptide-ODbackground)/(ODnegative-ODbackground)
(§7) All experiments were performed in triplicate.

HaCaT cells [17] = test: Cytotoxicity, WST-1 cell viability; conditions: 24 h, 37 °C, repeated three times
Description: as §5, §6, §7

Aeromonas hydrophila = test: microbe, parasite or virus in culture; assay type: cell-based; conditions: 6 h
Description: as §2, §3

PK15 cells [18] = tested on: PK15 cells
Description: as §5, §6, §7

HaCaT cells [19] = tested on: HaCaT cells
Description: as §5, §6, §7

[20] = 10 μg/mL, 2% (v/v) erythrocytes in PBS pH 7.4, 37 °C 1 h, mean ± SD
[21] = 20 μg/mL, 2% erythrocytes in PBS pH 7.4, 37 °C 1 h
[22] = 40 μg/mL, 2% erythrocytes in PBS pH 7.4, 37 °C 1 h
[23] = 80 μg/mL, 2% erythrocytes in PBS pH 7.4, 37 °C 1 h

Description for PK15 and HaCaT cells: as §5, §6, §7

## LNPLIKAGIFILKHRRPIGRGIEITGRGIKKFFSK [ML-CATH]
[1]
  Minimal inhibitory concentration, Bacillus cereus: 3 (0.8) μg/mL
[2]
  Minimal inhibitory concentration, Enterococcus faecalis: 5 (1.3) μg/mL
[3]
  Minimal inhibitory concentration, Pseudomonas aeruginosa: 42 (10.6) μg/mL
[4]
  Minimal inhibitory concentration, Staphylococcus aureus: 2 (0.5) μg/mL
[5]
  Minimal inhibitory concentration, Streptococcus agalactiae: 8 (2.0) μg/mL
[6]
  Minimal inhibitory concentration, Streptococcus dysgalactiae: 14 (3.5) μg/mL
[7]
  Minimal inhibitory concentration, Streptococcus equi subsp. zooepidemicus: 9 (2.3) μg/mL
Corynebacterium simulans
  Minimal inhibitory concentration, Corynebacterium simulans: 1 (0.3) μg/mL
[8]
  Minimal inhibitory concentration, Glutamicibacter halophytocola: 2 (0.5) μg/mL
[9]
  Minimal inhibitory concentration, Staphylococcus chromogenes: 2 (0.5) μg/mL
[10]
  Minimal inhibitory concentration, Staphylococcus epidermidis: 2 (0.5) μg/mL
Staphylococcus xylosus
  Minimal inhibitory concentration, Staphylococcus xylosus: 2 (0.5) μg/mL
Streptococcus uberis
  Minimal inhibitory concentration, Streptococcus uberis: 3 (0.8) μg/mL
E. coli (ATCC 25922) [11]; ATCC 25922, pH 5
  MIC against E. coli in more acidic conditions: 2 µg/mL
E. coli (ATCC 25922) [12]
  antibacterial activity after incubation with serum: remained unaffected under all the tested conditions
Bovine erythrocytes; [20]
  Haemolytic activity against bovine erythrocytes: 5.8 ± 0.4%
Bovine erythrocytes; [21]
  Haemolytic activity against bovine erythrocytes: 6.4 ± 0.8%
Bovine erythrocytes; [22]
  Haemolytic activity against bovine erythrocytes: 7.0 ± 0.8%
Bovine erythrocytes; [23]
  Haemolytic activity against bovine erythrocytes: 7.7 ± 0.2%
Bovine erythrocytes; 160 μg/mL, 2% erythrocytes in PBS pH 7.4, 37 °C 1 h
  Haemolytic activity against bovine erythrocytes: 11.8 ± 4.5%
[13]
  MICs, range over all bacterial species in the test panel: 2 to 42 µg/mL
[14]
  minimum inhibitory concentration, range over strains: 0.2 to 10.3 µM
[15]
  MICs, range over field isolates: 0.8 to 5 µg/mL
PK15 and HaCaT cells
  cell viability of PK15 and HaCaT: 91.1 ± 1.8% to 100.6 ± 0.4
PK15 cells [16]; 64 μg/mL peptide
  Cell viability ± SD, PK15: 96.2 ± 0.4%
PK15 cells [16]; 160 μg/mL peptide
  Cell viability ± SD, PK15: 38.0 ± 2.2%
HaCaT cells [17]; 64 μg/mL peptide
  Cell viability ± SD, HaCaT: 99.7 ± 0.9%
HaCaT cells [17]; 160 μg/mL peptide
  Cell viability ± SD, HaCaT: 98.0 ± 1.5%

## RVRRFWPLVPVAINTVAAGINLYKAIRRK [cc-CATH3]
[1]
  Minimal inhibitory concentration, Bacillus cereus: 4 (1.28) μg/mL
[2]
  Minimal inhibitory concentration, Enterococcus faecalis: 5 (1.5) μg/mL
[3]
  Minimal inhibitory concentration, Pseudomonas aeruginosa: 4 (1.28) μg/mL
[4]
  Minimal inhibitory concentration, Staphylococcus aureus: 2 (0.6) μg/mL
[5]
  Minimal inhibitory concentration, Streptococcus agalactiae: 4 (1.28) μg/mL
[6]
  Minimal inhibitory concentration, Streptococcus dysgalactiae: 7 (2.0) μg/mL
[7]
  Minimal inhibitory concentration, Streptococcus equi subsp. zooepidemicus: 5 (1.5) μg/mL
Aeromonas hydrophila
  Minimal inhibitory concentration, Aeromonas hydrophila: > 160 (47.4) μg/mL
Corynebacterium simulans
  Minimal inhibitory concentration, Corynebacterium simulans: 0.8 (0.2) μg/mL
[8]
  Minimal inhibitory concentration, Glutamicibacter halophytocola: 2 (0.6) μg/mL
[9]
  Minimal inhibitory concentration, Staphylococcus chromogenes: 3 (0.9) μg/mL
[10]
  Minimal inhibitory concentration, Staphylococcus epidermidis: 2 (0.6) μg/mL
Staphylococcus xylosus
  Minimal inhibitory concentration, Staphylococcus xylosus: 2 (0.6) μg/mL
Streptococcus uberis
  Minimal inhibitory concentration, Streptococcus uberis: 4 (1.2) μg/mL
E. coli (ATCC 25922) [11]; ATCC 25922
  Minimal inhibitory concentration against E. coli, 150 mM NaCl: 1.6 µM
E. coli (ATCC 25922) [12]
  antibacterial activity after incubation with serum: significantly affected in concentrations lower than 3 × MIC
Bovine erythrocytes; [20]
  Haemolytic activity against bovine erythrocytes: 0.0 ± 0.1%
Bovine erythrocytes; [21]
  Haemolytic activity against bovine erythrocytes: 0.0 ± 0.1%
Bovine erythrocytes; [22]
  Haemolytic activity against bovine erythrocytes: 0.4 ± 0.2%
Bovine erythrocytes; [23]
  Haemolytic activity against bovine erythrocytes: 0.8 ± 0.1%
[13]
  MICs, range over all bacterial species in the test panel: 2 to 42 µg/mL
[14]
  minimum inhibitory concentration, range over strains: 0.2 to 10.3 µM
[15]
  MICs, range over field isolates: 0.8 to 5 µg/mL
PK15 and HaCaT cells
  cell viability of PK15 and HaCaT: 91.1 ± 1.8% to 100.6 ± 0.4
PK15 cells [16]; 64 μg/mL peptide
  Cell viability ± SD, PK15: 91.1 ± 1.8%
PK15 cells [16]; 160 μg/mL peptide
  Cell viability ± SD, PK15: 32.7 ± 3.5%
HaCaT cells [17]; 64 μg/mL peptide
  Cell viability ± SD, HaCaT: 100.6 ± 0.4%
HaCaT cells [17]; 160 μg/mL peptide
  Cell viability ± SD, HaCaT: 90.1 ± 4.8%

## Triton X-100 [Triton X-100 (1%)]
PK15 cells [18]
  Cell viability ± SD, PK15: 13.3 ± 0.1%
HaCaT cells [19]
  Cell viability ± SD, HaCaT: 13.0 ± 0.4%
